The values below come from article PMC9695012, “Diastereoselective Synthesis of Novel Spiro-Phosphacoumarins and Evaluation of Their Anti-Cancer Activity” (International Journal of Molecular Sciences, 2022).

A word on the IC50: it is the concentration that inhibits the measured activity by half. By melting point is commonly meant the temperature of the solid-liquid transition.

Data set [1] concerns Chang Liver. Briefly: cells. The note with it: Homo sapiens, read-out: IC50, Chang Liver.
The subject of data set [2] is HuTu 80. In words: cells. Conditions: Homo sapiens, HuTu80, read-out: IC50, HuTu 80.
Data set [3] concerns HuTu 80. The note with it: for SI, HuTu 80: selectivity index vs Chang liver normal cells, ns = no selectivity.
Data set [4] has as its system MCF-7. In words: cells. The note with it: for IC50: Homo sapiens, MCF7, MTT, cancer cell line, three independent experiments; for SI, MCF-7: selectivity index vs Chang liver normal cells, ns = no selectivity. Type of data set: cell-based, human.
The subject of data set [5] is M-HeLa. In words: cells. Conditions: for IC50: Homo sapiens, M-HeLa, MTT, cancer cell line, three independent experiments; for SI, M-HeLa: selectivity index vs Chang liver normal cells, ns = no selectivity. Type of data set: cell-based, human.
In data set [6] the test system is Chang Liver. Conditions: relative to 5-fluorouracil.
Data set [7] concerns HuTu 80 cells. Briefly: Mitochondrial membrane potential, JC-10 flow cytometry. Conditions: IC50/2 and IC50, more pronounced at IC50/2. The class given is cell-based, human. How it is done: The possibility of apoptosis through the mitochondrial pathway was assessed by flow cytometry using the JC-10 fluorescent dye (in the Mitochondria Membrane Potential Kit). In normal cells with a high membrane potential, JC-10 accumulates in the mitochondrial matrix, where it forms aggregates with a red fluorescence. However, in apoptotic cells, a decrease in the membrane potential occurs. JC-10 diffuses from mitochondria and turns into a monomeric form, emitting a green fluorescence, which is recorded by a flow cytometer (Figure 4). […] As in the experiment with V-Alexa Fluor 647, the cytotoxic effect of compound 2a was more pronounced at IC50/2 concentration.
Cells were harvested at 2000 rpm for 5 min and then washed twice with ice-cold PBS, followed by resuspension in JC-10 (10 µg/mL) and incubation at 37 °C for 10 min. After the cells were rinsed three times and suspended in PBS, the JC-10 fluorescence was observed by flow cytometry (Guava easy Cyte, MERCK, Rahway, NJ, USA).
For orientation: In flow cytometry, cells or beads pass a laser one at a time.

The test system of data set [8] is HuTu 80 cells. Briefly: Apoptosis induction, annexin V-Alexa Fluor 647 / propidium iodide flow cytometry. The class given is cell-based, human. The note with it: 24-h incubation, most active at IC50/2 (12.5 µM), early apoptosis stage. How it is done: Cell Culture. HuTu 80 cells at 1 × 10^6 cells/well in a final volume of 2 mL were seeded into six-well plates. After 24 h of incubation, various concentrations of compound 2a were added to wells.
Cell Apoptosis Analysis. The cells were harvested at 2000 rpm for 5 min and then washed twice with ice-cold PBS, followed by resuspension in binding buffer. Next, the samples were incubated with 5 μL of annexin V- Alexa Fluor 647 (Sigma-Aldrich, St. Louis, MO, USA) and 5 μL of propidium iodide for 15 min at room temperature in the dark. Finally, the cells were analyzed by flow cytometry (Guava easy Cyte, MERCK, Rahway, NJ, USA) within 1 h. The experiments were repeated three times.

Data set [9] concerns HuTu 80 cells. Briefly: Intracellular ROS, CellROX Deep Red flow cytometry. The note with it: for CellROX Deep Red fluorescence intensity (ROS production): control 700. Type of data set: cell-based, human. The text has this: An increase in the production of reactive oxygen species (ROS) by compounds also characterizes the development of apoptosis along the mitochondrial pathway. Mitochondria are a potential source and target of ROS. ROS leads to dysfunction of the mitochondria and, consequently, to irreversible cell damage. In this regard, the effect of the lead compound 2a in HuTu 80 cells on ROS production was investigated using a flow cytometry assay and the CellROX® Deep Red flow cytometry kit. The data presented in Figure 6 show a significant increase in CellROX® Deep Red fluorescence intensity dominated by IC50/2.
HuTu 80 cells were incubated with compound 2a at concentrations of IC50 for 24 h. ROS generation was investigated using flow cytometry assay and CellROX® Deep Red flow cytometry kit. For this HuTu 80 cells were harvested at 2000 rpm for 5 min and then washed twice with ice-cold PBS, followed by resuspension in 0.1 mL of medium without FBS, to which was added 0.2 μL of CellROX® Deep Red and incubated at 37 °C for 30 min After being washed three times, the cells were suspended in PBS, and the production of ROS in the cells was immediately monitored using a flow cytometer Guava easy Cyte, MERCK, Rahway, NJ, USA).

The subject of data set [10] is HuTu 80 cells. Briefly: Cell cycle analysis by flow cytometry. Type of data set: cell-based, human. Conditions: 24 h; for cells in G1/G0 phase: control 77%. How it is done:
Taking into account the high potency and selectivity of the compound 2a, some additional experiments were carried out to study in more details its anti-cancer action. The mechanism of action of cytotoxic agents is often associated with cell cycle arrest, which leads to a slowing down of cell proliferation. So, we have performed a cell cycle analysis for the HuTu 80 cells using flow cytometry. […] Meanwhile, the proportion of cells in S phase decreased almost by half (8.2% vs. 4.7%).

Data set [11] in a line: Solubility in water. The class given is physicochemical. The note with it: in words; reason for exclusion from cytotoxicity studies.

With `CN1C[C@@H]2[C@@H](c3c(O)c(Cl)cc(Cl)c3OP2(=O)O)C12C(=O)c1ccccc1C2=O` [2c, (3aS,9bS)-6,8-dichloro-4,9-dihydroxy-2-methyl-2,3,3a,9b-tetrahydrospiro[benzo [5,6][1,2]oxaphosphinino [3,4-c]pyrrole-1,2’-indene]-1’,3’-dione 4-oxide], the melting point was > 300 °C. In addition, the IC50 in data set [1] is > 100 µM. Besides, the IC50 in data set [2] stood at 100 ± 8.4 µM. For the same compound, in [3], the “SI, HuTu 80” value is listed as “ns”. In data set [4], the IC50 is 77.6 ± 6.2 µM and the “SI, MCF-7” value is reported as “ns”. In addition, in data set [5], the IC50 is > 100 µM and the “SI, M-HeLa” value is recorded as “ns”.
`CN1C[C@@H]2[C@@H](c3ccc4ccccc4c3OP2(=O)O)C12C(=O)c1ccccc1C2=O` [2d, (3a’S,11a’S)-11’-hydroxy-2’-methyl-1’,2’,3a’,11a’-tetrahydrospiro[indene-2,3’-naphtho [2’,1’:5,6][1,2]oxaphosphinino [3,4-c]pyrrole]-1,3-dione 11’-oxide]: the melting point was > 300 °C. Besides, the IC50 in [1] was found to be 57 ± 4.3 µM. Further, the IC50 in data set [2] was 82.6 ± 7.6 µM. Besides, the “SI, HuTu 80” value in [3] is “ns”. In addition, in [4], the IC50 amounted to 92.2 ± 8.3 µM and the “SI, MCF-7” value was “ns”. In addition, in data set [5], the IC50 was found to be 60 ± 5.4 µM and the “SI, M-HeLa” value is recorded as “ns”.
For the compound `Cc1cc(C)c2c(c1C)OP(=O)(O)[C@@H]1CN(C)C3(C(=O)c4ccccc4C3=O)[C@H]21` [2a, (3aS,9bS)-4-hydroxy-2,6,7,9-tetramethyl-2,3,3a,9b-tetrahydrospiro[benzo [5,6][1,2]oxaphosphinino [3,4-c]pyrrole-1,2’-indene]-1’,3’-dione 4-oxide], the melting point was > 300 °C. Moreover, in data set [6], the “cytotoxicity against Chang liver normal cell line, fold lower than reference compound” value is listed as “more than 10 fold”. Also, the “effect on mitochondrial membrane potential (in words)” value in [7] is listed as “significant decrease”. For the same compound, the “induction of apoptosis (in words)” value in [8] is reported as “begins to induce apoptosis”. Also, in data set [1], the IC50 was > 800 µM. In addition, the IC50 in [2] was determined as 25.1 ± 1.9 µM. The “CellROX Deep Red fluorescence intensity (ROS production)” value in [9] (IC50 (25 µM)) was 1500. Moreover, the “CellROX Deep Red fluorescence intensity (ROS production)” value in data set [9] (IC50/2 (12.5 µM)) was 2000. In addition, the “effect on ROS production (in words)” value in [9] (IC50/2 and IC50, dominated by IC50/2) is given as “increase in ROS production”. The “cytotoxicity against HuTu 80 cell line, fold higher than reference 5-fluorouracil” value in data set [3] (relative to 5-fluorouracil) is ~2.6 fold. The “SI, HuTu 80” value in data set [3] is on record as >32. Also, the “effect on cell cycle (in words)” value in data set [10] (12.5 and 25 µM) is recorded as “induces G0/G1 phase arrest”. The “cells in S phase” value in [10] (IC50 (25 µM), control 8.2%) is 4.7%. Moreover, in data set [10] (IC50 (25 µM)), the “cells in G1/G0 phase” value amounted to 81.0%. Besides, the “cells in G1/G0 phase” value in [10] (IC50/2 (12.5 µM)) worked out at 79.0%. In data set [4], this compound registered an IC50 of 82.3 ± 7.5 µM. Further, in [5], the IC50 was 52.6 ± 4.1 µM and the “SI, M-HeLa” value is reported as >15.
As to `CN1c2c(c(=O)oc3ccccc23)CC12C(=O)c1ccccc1C2=O`, the melting point was > 300 °C.
As for `Cc1cc(C)c2c(c1C)OP(=O)(O)[C@@H]1[C@H]3CCCN3C3(C(=O)c4ccccc4C3=O)[C@H]21` [2e, (6aS,6bR,11aS)-6-hydroxy-1,3,4-trimethyl-6a,6b,7,8,9,11a-hexahydrospiro[benzo [5,6][1,2]oxaphosphinino [3,4-a]pyrrolizine-11,2’-indene]-1’,3’-dione 6-oxide], the melting point is > 300 °C. For the same compound, the IC50 in [1] is > 100 µM. Besides, in data set [2], the IC50 is > 100 µM. Moreover, in data set [3], the “SI, HuTu 80” value was “ns”. In data set [4], the IC50 is > 100 µM and the “SI, MCF-7” value is “ns”. For the same compound, in data set [5], the IC50 was > 100 µM and the “SI, M-HeLa” value is “ns”.
`O=C1c2ccccc2C(=O)C12[C@@H]1c3ccc4ccccc4c3OP(=O)(O)[C@@H]1[C@H]1CCCN12` [2f, (8a’S,8b’R,13a’S)-8’-hydroxy-8a’,8b’,9’,10’,11’,13a’-hexahydrospiro[indene-2,13’-naphtho [2’,1’:5,6][1,2]oxaphosphinino [3,4-a]pyrrolizine]-1,3-dione 8’-oxide]: the melting point is > 300 °C. Further, in data set [11], the solubility in water entry was “extremely low”.
Turning to `COc1ccc2c(c1)OP(=O)(O)[C@@H]1CN(C)C3(C(=O)c4ccccc4C3=O)[C@H]21` [2b, (3aS,9bS)-4-hydroxy-7-methoxy-2-methyl-2,3,3a,9b-tetrahydrospiro[benzo [5,6][1,2]oxaphosphinino [3,4-c]pyrrole-1,2’-indene]-1’,3’-dione 4-oxide], the half-inhibitory concentration (IC50) was 62 ± 5.5 µM in data set [1], 53.4 ± 4.2 µM in [2], > 100 µM in data set [4] and 59.7 ± 4.6 µM in data set [5]. In addition, the “SI, HuTu 80” value in data set [3] was 1.2. Further, the “SI, MCF-7” value in data set [4] is on record as “ns”. Further, the “SI, M-HeLa” value in [5] was 1.
`O=C1c2ccccc2C(=O)C12[C@@H]1c3ccc4cc(Br)ccc4c3OP(=O)(O)[C@@H]1[C@H]1CCCN12` [2g, (8a’S,8b’R,13a’S)-4’-bromo-8’-hydroxy-8a’,8b’,9’,10’,11’,13a’-hexahydrospiro[indene-2,13’-naphtho [2’,1’:5,6][1,2]oxaphosphinino [3,4-a]pyrrolizine]-1,3-dione 8’-oxide]: the melting point was > 300 °C. In addition, in data set [11], the solubility in water entry is recorded as “extremely low”.
`O=c1[nH]cc(F)c(=O)[nH]1` [5-fluorouracil, reference compound]: in data set [2], the IC50 was 65.2 ± 5.6 µM. Also, in [3], the “SI, HuTu 80” value amounted to 1.3. In data set [4], the IC50 came out at 16.7 ± 1.3 µM and the “SI, MCF-7” value is 5. In data set [5], the IC50 was determined as 62 ± 4.7 µM and the “SI, M-HeLa” value is 1.4.
